Test results reported in publication PMC12113707, “Microwave Assisted Synthesis of Antioxidant Dihydro-Pyrazole Hybrids as Possible Lipoxygenase Inhibitors” (Molecules, 2025).

Tests used:
[1] = Inhibition of AAPH-induced linoleic acid peroxidation; conditions: 37 °C, 234 nm
Description: The ability of the compounds to inhibit AAPH-induced peroxidation of linoleic acid is another assay to investigate the antioxidant properties of the compounds. Azo compounds such as 2,2′-azobis dihydrochloride (2-amidinopropane) (AAPH) are capable of generating free radicals through spontaneous decomposition at 37 °C. The R- radicals react immediately with air-oxygen to produce peroxy radicals. AAPH was therefore used as the radical initiator and sodium linoleate as substrate subjected to peroxidation. Measurements were carried out at 234 nm using a UV/V is spectrophotometer. Dichalcone 1i substituted with two phenyl groups presents the lowest lipophilicity. […] Therefore, hydrophilic substituents offer an increase in activity.
The interaction of free radicals with cell membrane lipids induces free radical chain reactions, a process called lipid peroxidation. 930 μL of a phosphate buffer solution (0.05 M, pH = 7.4), 10 μL of the sodium linolate solution (16 mM in a buffer solution of Tris-HCl pH = 9) and 10 μL of the tested compounds (stock solutions 100 μΜ) were mixed and the oxidative procedure started after the addition of 50 μL AAPH at 37 °C under air conditions. The conjugated diene’s absorbance was measured at 234 nm at a thermostable spectrophotometer (37 °C) according to previous publication.

[2] = Interaction with the stable free radical DPPH (reducing activity); conditions: 517 nm
Description: In general, the compounds present moderate to good antioxidant activity. It seems that the dibenzylacetones present satisfactory antioxidant activity compared to the hybrids at 60 min (1b, 1d and 1f).
The tested compounds (0.1 mM final concentration) dissolved in DMSO were incubated with a solution of DPPH in absolute ethanol in absence of light. The absorbance at 20 and 60 min at 517 nm was recorded at room temperature. NDGA was used as the reference compound.

[3] = target: T1, soybean lipoxygenase (SLOX-1) (Glycine max, UniProt P08170); assay: Inhibition of soybean lipoxygenase in vitro; type: biochemical; conditions: pH 9, sodium linoleate substrate; for inhibition at 100 µM: read-out: LOX% Inhibition, 100 μM (±SD); for IC50: read-out: LOX IC50 (μM) (±SD)
T1 construct: 200 μL of plant-derived lipoxygenase solution (1:9 × 10^−4 w/v, in saline); purchased Sigma Chemical, Co; host or cells: soybean (plant-derived)
T1 sequence (P08170 1-839): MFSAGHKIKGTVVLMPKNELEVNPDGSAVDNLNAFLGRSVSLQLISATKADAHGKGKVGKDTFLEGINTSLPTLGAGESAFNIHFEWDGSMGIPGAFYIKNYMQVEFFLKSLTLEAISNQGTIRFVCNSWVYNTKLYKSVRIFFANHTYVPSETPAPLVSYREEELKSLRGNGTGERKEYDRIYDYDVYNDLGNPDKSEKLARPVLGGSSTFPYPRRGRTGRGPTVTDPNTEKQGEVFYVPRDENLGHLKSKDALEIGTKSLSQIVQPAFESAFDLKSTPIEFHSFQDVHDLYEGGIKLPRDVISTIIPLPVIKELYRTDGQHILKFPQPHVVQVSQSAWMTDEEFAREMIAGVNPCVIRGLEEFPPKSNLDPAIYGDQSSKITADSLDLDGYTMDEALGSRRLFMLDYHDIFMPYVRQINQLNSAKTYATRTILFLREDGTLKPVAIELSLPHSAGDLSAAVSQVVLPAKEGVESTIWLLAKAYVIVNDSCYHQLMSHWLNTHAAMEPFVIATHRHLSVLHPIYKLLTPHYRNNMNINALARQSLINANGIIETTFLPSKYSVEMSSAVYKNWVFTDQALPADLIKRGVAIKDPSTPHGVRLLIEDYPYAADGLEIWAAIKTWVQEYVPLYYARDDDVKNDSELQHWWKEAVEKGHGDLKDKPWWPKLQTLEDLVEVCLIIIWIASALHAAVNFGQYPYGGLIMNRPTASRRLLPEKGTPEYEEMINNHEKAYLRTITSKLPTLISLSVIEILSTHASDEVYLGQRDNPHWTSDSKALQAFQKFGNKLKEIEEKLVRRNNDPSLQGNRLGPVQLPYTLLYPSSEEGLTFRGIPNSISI
Description: Soybean lipoxygenase SLOX-1 at pH 9 is used in vitro. During this assay linoleic acid sodium salt is converted to the corresponding 13-hydroperoxide. The reaction is recorded photometrically at 234 nm using the UV-based enzyme assay. […] It is known that soybean LOX inhibitory activity induced by NSAIDs is qualitatively quite similar to the inhibition observed on the rat mast cells LOX and this assay may be used as a qualitative or semi-quantitative screen for such activity.
To a quartz cell, add 790 μL of Tris-HCl pH = 9.0 buffer, 200 μL of plant-derived lipoxygenase solution (1:9 × 10^−4 w/v, in saline), 10 μL of the test compound solution and 100 μL of sodium linoleate solution (3 mM concentration). The absorbance was measured at 234 nm, where the change in absorbance due to the conversion of linoleic acid to […] was recorded. A solution of 790 μL of Tris-HCl pH = 9.0 buffer, 200 μL of a plant-derived lipoxygenase solution (1:9 × 10^−4 w/v, in saline), 10 μL of DMSO and 100 μL of sodium linoleate solution (3 mM concentration) was used as a control.

[4] = Experimental lipophilicity RM by reverse phase thin layer chromatography (RP-TLC); type: physicochemical; conditions: methanol-water mobile phase
Description: Lipophilicity is a main physicochemical parameter for bioactive molecules, linking solubility, ligand-target binding interactions, membrane permeability absorption, distribution, bioavailability, metabolism, elimination and toxicological effects (ADMET), playing an important role in biological activity. The experimental values of lipophilicity RM were determined by reverse phase thin layer chromatography. For the experimental determination of lipophilicity the hydrophilic-lipid phase system is a mixture of methanol- water (90/10%). The theoretical lipophilicity values are determined by the Bioloom program (http://biobyte.com/bb/prod/bioloom.html, accessed on 8 April 2024) (Table 1). According to the calculated clog P values, the most lipophilic compounds are 3c, 3d and 3f while the less lipophilic ones are compounds 5a and 5b.
Melting points were determined on a MEL-Temp II (Lab. Devices, Holliston, MA, USA). In vitro tests were carried out using a UV-Vis spectra and recorded on a Perkin-Elmer 554 double-beam spectrophotometer (Perkin-Elmer Corporation Ltd., Lane Beaconsfield, Bucks, UK). Infrared spectra (KBr pellets) were recorded with Perkin-Elmer 597 spectrophotometer (Perkin-Elmer Corporation Ltd., Lane Beaconsfield, Bucks, UK). The ^1H […] Magnetic Resonance (^1H-NMR) spectra were acquired on an Agilent 500/54 (DD2) at 500 MHz in CDCl3 using tetramethylsilane as an internal standard. Agilent 500/54 (DD2) ^13C NMR spectra were acquired at 125 MHz in CDCl3 solutions with tetramethylsilane serving as an internal reference. Coupling constants J are expressed in Hz, and chemical shifts are reported in ppm. Thermo Fisher Scientific Inc., Waltham, MA, USA, used MeOH as the solvent to calculate mass spectra using an LC-PDA-MS Thermo Finnigan system (LC Pump Plus, Autosampler, Surveyor PDA Plus Detector) interfaced with an ESI MSQ Plus (Thermo Finnigan). Thin-layer chromatography using 5554 F254 Silica gel/TLC cards (Merck and Fluka Chemie GmbH Buchs, Steinheim, Switzerland) was used to monitor the reaction progress. Silica gel 60 F254 plates with a diameter of 2 mm were utilized for preparative thin layer chromatography (prep TLC) by Merck KgaA (ICH078057). Merck (20 × 20 cm) plates were used for the experimental assessment of the lipophilicity using reverse phase thin-layer chromatography (RP-TLC) TLC-Silica gel 60 F254 DC Kieselgel.
In this experiment, TLC silica gel 60 F254 1.05715.0001 commercial glass plates from Merck were used. The plates were first immersed in a 5% v/v solution of liquid paraffin in petroleum ether and left for 90 s to become completely impregnated with the stable lipophilic phase. They were then activated by standing for 30 min in an oven at 40 °C and kept there until the time of use. A 70% v/v MeOH/H2O mixture was used as the mobile phase. The mobile phase was saturated with a few drops of liquid paraffin before being used. The spots of the compounds were placed on the plate at a distance of 2 cm from the edges of the plate and also from each other. The development of the spots on the plates was carried out in closed chromatography chambers where the atmosphere is saturated with the mobile phase at room temperature. At the end of development, the solvent-formed front was marked and the plates are dried at 80 °C for about 20–30 min. The appearance of the spots was made under an ultraviolet light lamp. The Rf values were the average of 5–6 measurements for each compound and assuming that the compounds will have been rotated to different positions on the plates. The RM values were calculated from the corresponding Rf values according to the equation [67].RM = log [(1/Rf) − 1](1)

| SMILES | inhibition at 100 µM [3] [%] | RM ± SD [4] | IC50 [3] [µM] | AAPH% Inhibition, 100 μM (±SD) [1] [%] | RA%, 100 μM, 20 min (±SD) [2] [%] | RA%, 100 μM, 60 min (±SD) [2] [%] |
| --- | --- | --- | --- | --- | --- | --- |
| FC(F)(F)c1ccc(/C=C/C2=NN(c3ccccc3)C(c3ccc(C(F)(F)F)cc3)C2)cc1 (stereo not drawn) [Compound 2f] | 14 ± 0.8 | 1.31 ± 0.031 | – | 52 ± 2.5 | 5 ± 0.2 | – |
| CC(Cc1ccc(O)c(O)c1)C(C)Cc1ccc(O)c(O)c1 (stereo not drawn) [NDGA, Nordihydroguaretic acid, reference compound] | – | – | – | – | 87 | 93 |
| O=C(/C=C/c1ccccc1)/C=C/c1ccccc1 [Compound 1a, (1E,4E)-1,5-diphenyl-1,4-pentadien-3-one] | – | 0.10 ± 0.003 | 10 | 69 ± 0.3 | 5 ± 0.5 | 10 ± 0.5 |
| CN(C)c1ccc(/C=C/C(=O)/C=C/c2ccc(N(C)C)cc2)cc1 [Compound 1e, (1E,4E)-1,5-bis(4-dimethylaminophenyl)-1,4-pentadien-3-one] | 24 ± 0.6 | −0.14 ± 0.009 | – | 50 ± 0.5 | – | 100 ± 8.7 |
| CN(C)c1ccc(/C=C/C2=NN(c3ccccc3)C(c3ccc(N(C)C)cc3)C2)cc1 (stereo not drawn) [Compound 2e] | – | 0.95 ± 0.092 | 0.35 | 78 ± 0.4 | 24 ± 0.9 | 45 ± 1 |
| N#Cc1ccc(N2N=C(/C=C/c3ccc(F)cc3)CC2c2ccc(F)cc2)cc1 (stereo not drawn) [Compound 4b, (E)-4-(5-(4-fluorophenyl)-3-(4-fluorostyryl)-4,5-dihydro-1H-pyrazo-1-yl)-benzonitrile] | – | 0.61 ± 0.053 | – | 97 ± 0.6 | 2 ± 0.1 | – |
| N#Cc1ccc(N2N=C(/C=C/c3ccc(C(F)(F)F)cc3)CC2c2ccc(C(F)(F)F)cc2)cc1 (stereo not drawn) [Compound 4f, (E)-4-(5-(4-(trifluoromethyl)phenyl)-3-(4-(trifluoromethyl)styryl)-4,5-dihydro-1H-pyrazol-1-yl)-benzonitrile] | 22 ± 1.8 | 0.8 ± 0.031 | – | 12 ± 1.1 | – | – |
| N#Cc1ccc(N2N=C(/C=C/c3ccccc3)CC2c2ccccc2)cc1 (stereo not drawn) [Compound 4a, (E)-4-(5-phenyl-3-styryl-4,5-dihydro-1H-pyrazo-1-yl)-benzonitrile] | 39 ± 0.4 | −0.31 ± 0.023 | – | 98 ± 0.4 | – | – |
| Brc1ccc(/C=C/C2=NN(c3ccccc3)C(c3ccc(Br)cc3)C2)cc1 (stereo not drawn) [Compound 2c] | – | 2.1 ± 0.17 | – | 68 ± 0.6 | 21 ± 0.6 | – |
| Cc1c(C)c2c(c(C)c1O)CCC(C)(C(=O)O)O2 (stereo not drawn) [Trolox, 6-Hydroxy-2,5,7,8-tetramethyl-chroman2-carboxylic acid, reference compound] | – | – | – | 92 | – | – |

Continued, in another order:

| inhibition at 100 µM [3] [%] | RM ± SD [4] | IC50 [3] [µM] | SMILES | AAPH% Inhibition, 100 μM (±SD) [1] [%] | RA%, 100 μM, 20 min (±SD) [2] [%] | RA%, 100 μM, 60 min (±SD) [2] [%] |
| --- | --- | --- | --- | --- | --- | --- |
| 4 ± 0.3 | 0.06 ± 0.005 | – | NC(=O)N1N=C(/C=C/c2ccccc2)CC1c1ccccc1 (stereo not drawn) [Compound 5a, (E)-5-phenyl-3-styryl-4,5-dihydro-1H-pyrazole-1-carboxamide] | 29 ± 2.2 | – | – |
| 37 ± 0.6 | 0.60 ± 0.055 | – | NC(=O)N1N=C(/C=C/c2ccc(Br)cc2)CC1c1ccc(Br)cc1 (stereo not drawn) [Compound 5c, (E)-5-(4-bromophenyl)-3-(4-bromostyryl)-4,5-dihydro-1H-pyrazole-1-carboxamide] | 85 ± 0.6 | – | – |
| 1 ± 0.07 | 0.78 ± 0.051 | – | CC(=O)N1N=C(/C=C/c2ccc(Br)cc2)CC1c1ccc(Br)cc1 (stereo not drawn) [Compound 6c, (E)-5-(4-bromophenyl)-3-(4-bromostyrene)-4,5-dihydro-1-H-pyrazol-1-ethan-1-one] | 71 ± 0.4 | – | – |
| 26 ± 0.3 | 0.24 ± 0.021 | – | CC(=O)N1N=C(/C=C/c2ccc(F)cc2)CC1c1ccc(F)cc1 (stereo not drawn) [Compound 6b, (E)-5-(4-fluorophenyl)-3-(4-fluorostyryl)-4,5-dihydro-1-H-pyrazol-1-ethan-1-one] | 46 ± 0.6 | – | – |
